Test results from patent US20220055989A1, “CONDENSED PYRROLES AS NOVEL BROMODOMAIN INHIBITORS” (ALBERT LUDWING UNIVERSITÄT FREIBURG, priority 2018, published 2022).

Columns and labels:
Format in all cases: binding
[1] = molecular target: T1, BRD2(1) (Homo sapiens, UniProt P25440); test: BROMOscan Kd determination BRD2(1)
T1 construct: T7 phage strains displaying bromodomains were grown in parallel; made in house; host or cells: T7 phage grown in an E. coli host derived from the BL21 strain
Experimental: (§1) Bromodomain profiling was carried out on the basis of BROMOscan™. This platform accounted for the indirect determination of the dissociation constants between 19 bromodomains and the compound of formula (13), by binding competition against a reference immobilized ligand. Compounds that bind the bromodomain prevent its binding to the immobilized ligand thus reducing the amount of protein captured. […] Hits are identified by measuring the amount of bromodomain captured in test versus control samples. Bromodomain assays for Kd determination: T7 phage strains displaying bromodomains were grown in parallel in 24-well blocks in an E. coli host derived from the BL21 strain. E. coli were grown to log-phase and infected with T7 phage from a frozen stock (multiplicity of infection=0.4) and incubated with shaking at 32° C. until lysis (90-150 minutes). The lysates were centrifuged (5,000×g) and filtered (0.2 μm) to remove cell debris. […] Kds were determined using an 11-point 3-fold compound dilution series with one DMSO control point. […] The bromodomain concentration in the eluates was measured by qPCR. […] Most Kds were determined using a compound top concentration=10,000 nM. […] Binding Constants (Kds): Binding constants (Kds) were calculated with a standard dose-response curve using the Hill equation: The Hill Slope was set to −1. […]

[2] = molecular target: T2, BRD2(2) (Homo sapiens, UniProt P25440); test: BROMOscan Kd determination BRD2(2)
T2 construct: T7 phage strains displaying bromodomains were grown in parallel; made in house; host or cells: T7 phage grown in an E. coli host derived from the BL21 strain
Experimental: as §1

[3] = molecular target: T3, BRD3(1) (Homo sapiens, UniProt Q15059); test: BROMOscan Kd determination BRD3(1)
T3 construct: T7 phage strains displaying bromodomains were grown in parallel; made in house; host or cells: T7 phage grown in an E. coli host derived from the BL21 strain
Experimental: as §1

[4] = molecular target: T4, BRD3(2) (Homo sapiens, UniProt Q15059); test: BROMOscan Kd determination BRD3(2)
T4 construct: T7 phage strains displaying bromodomains were grown in parallel; made in house; host or cells: T7 phage grown in an E. coli host derived from the BL21 strain
Experimental: as §1

[5] = molecular target: T5, BRD4(2) (Homo sapiens, UniProt O60885); test: BROMOscan Kd determination BRD4(2)
T5 construct: T7 phage strains displaying bromodomains were grown; host or cells: T7 phage in E. coli derived from BL21
Experimental: as §1

[6] = tested on: bromodomains; test: Bromodomain profiling (BROMOscan), summary over the panel; details: compared to the compound of formula (23); bromodomains of Table 3
Experimental: Bromodomain profiling was carried out on the basis of BROMOscan™. This platform accounted for the indirect determination of the dissociation constants between 19 bromodomains and the compound of formula (13), by binding competition against a reference immobilized ligand.
Compounds that bind the bromodomain prevent its binding to the immobilized ligand thus reducing the amount of protein captured. […] Hits are identified by measuring the amount of bromodomain captured in test versus control samples.
Bromodomain assays for Kd determination: T7 phage strains displaying bromodomains were grown in parallel in 24-well blocks in an E. coli host derived from the BL21 strain. E. coli were grown to log-phase and infected with T7 phage from a frozen stock (multiplicity of infection=0.4) and incubated with shaking at 32° C. until lysis (90-150 minutes). The lysates were centrifuged (5,000×g) and filtered (0.2 μm) to remove cell debris. […] Kds were determined using an 11-point 3-fold compound dilution series with one DMSO control point. […] The bromodomain concentration in the eluates was measured by qPCR.
Bromodomain assays for % Ctrl determination: T7 phage strains displaying bromodomains were grown in parallel in 24-well blocks in an E. coli host derived from the BL21 strain. […] The bromodomain concentration in the eluates was measured by qPCR.

[7] = molecular target: T6, BRD1 (Homo sapiens, UniProt O95696); test: BROMOscan Kd determination BRD1
T6 construct: T7 phage strains displaying bromodomains were grown in parallel; made in house; host or cells: T7 phage grown in an E. coli host derived from the BL21 strain
Experimental: as §1

[8] = molecular target: T7, BRD8(1) (Homo sapiens, UniProt Q9H0E9); test: BROMOscan Kd determination BRD8(1)
T7 construct: T7 phage strains displaying bromodomains were grown; host or cells: T7 phage in E. coli derived from BL21
Experimental: as §1

T2 sequence (P25440 344-453 limits assumed): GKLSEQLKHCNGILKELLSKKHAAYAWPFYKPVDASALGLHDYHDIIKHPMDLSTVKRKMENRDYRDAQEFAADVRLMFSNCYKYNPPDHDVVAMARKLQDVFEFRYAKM
T1 sequence (P25440 74-180 limits assumed): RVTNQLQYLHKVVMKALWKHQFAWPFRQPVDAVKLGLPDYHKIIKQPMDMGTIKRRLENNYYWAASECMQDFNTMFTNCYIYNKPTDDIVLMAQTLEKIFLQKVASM
T4 sequence (Q15059 306-415 limits assumed): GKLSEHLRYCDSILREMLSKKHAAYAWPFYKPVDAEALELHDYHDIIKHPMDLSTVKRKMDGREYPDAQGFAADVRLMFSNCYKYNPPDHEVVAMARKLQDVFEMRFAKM
T3 sequence (Q15059 34-140 limits assumed): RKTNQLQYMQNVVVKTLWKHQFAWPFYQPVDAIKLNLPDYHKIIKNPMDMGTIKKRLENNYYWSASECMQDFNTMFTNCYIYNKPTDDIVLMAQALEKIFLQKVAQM
T6 sequence (O95696 562-666 limits assumed): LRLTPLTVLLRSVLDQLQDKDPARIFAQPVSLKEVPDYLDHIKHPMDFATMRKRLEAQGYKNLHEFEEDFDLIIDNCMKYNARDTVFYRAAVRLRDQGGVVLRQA
T7 sequence (Q9H0E9 706-811 limits assumed): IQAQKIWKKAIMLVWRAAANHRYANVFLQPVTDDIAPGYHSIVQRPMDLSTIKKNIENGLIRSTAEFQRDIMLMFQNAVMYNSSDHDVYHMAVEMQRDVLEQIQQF

Structure (SMILES) | Kd [1] [nM] | Kd [2] [nM] | Kd [3] [nM] | Kd [4] [nM] | Kd [5] [nM] | selectivity for certain bromodomains evaluated [6] | Kd [7] [nM] | Kd [8] [nM]
COc1ccc(S(=O)(=O)N2CCOCC2)cc1NC(=O)c1[nH]c(C)c2c1CCCCC2=O [Compound 13, N-(2-methoxy-5-(morpholinosulfonyl)phenyl)-3-methyl-4-oxo-2,4,5,6,7,8-hexahydrocyclohepta[c]pyrrole-1-carboxamide] | 45 | 290 | 100 | 140 | 220 |  |  | 
CCCc1[nH]c(-c2cc(N)ccc2Cl)c2c1C(=O)CCCC2 [Compound 26, 1-(5-Amino-2-chlorophenyl)-3-propyl-5,6,7,8-tetrahydrocyclohepta[c]pyrrol-4(2H)-one] |  |  |  |  |  | higher selectivity for certain bromodomains |  | 
CCCCc1[nH]c(-c2cc(N)ccc2Cl)c2c1C(=O)CCCC2 [Compound 27, 1-(5-Amino-2-chlorophenyl)-3-butyl-5,6,7,8-tetrahydrocyclohepta[c]pyrrol-4(2H)-one] |  |  |  |  |  | higher selectivity for certain bromodomains |  | 
Cc1[nH]c(-c2cc(N)ccc2Cl)c2c1C(=O)CCCC2 [Compound 23] | 130 | 200 | 170 | 330 | 270 |  | 3100 | 2600
